Measured values reported in patent publication US20170128426A1, “NOVEL DOSAGE AND FORMULATION” (Almirall, S.A., priority 2012, published 2017).

Experiment: Solubility of aclidinium bromide in solvents
Assay type: physicochemical
From the text: Aclidinium bromide is a white powder with a molecular formula of C26H30NO4S2Br and a molecular mass of 564.56. […] This compound is known to be a long-acting anticholinergic useful in the treatment of respiratory diseases.

In the case of `O=C(O[C@H]1C[N+]2(CCCOc3ccccc3)CCC1CC2)C(O)(c1cccs1)c1cccs1.[Br-]` [Aclidinium bromide, 3(R)-(2-hydroxy-2,2-dithien-2-ylacetoxy)-1-(3-phenoxypropyl)-1-azoniabicyclo[2.2.2]octane bromide], the solubility in ethanol (ethanol) is reported as “very slightly soluble”, the solubility in methanol (methanol) is reported as “sparingly soluble” and the solubility in water (water) is reported as “very slightly soluble”.
